# Test results as given in patent publication US6342245B1, “Compositions of lipid lowering agents” (Janssen Pharmaceutica N.V., priority 1997, dated 2002).
# Test system: apolipoprotein B
# Assay: Apolipoprotein B (apo B) inhibition test
# Assay type: cell-based, human
# Details: Hep G2-cells; concentration needed to reduce apoB secretion to 50% of the control
# Procedure: Cultured human liver cells (Hep G2-cells ) which synthesize and secrete low-density lipoproteins, were incubated overnight at 37° C. in a liquid medium containing radioactively labelled leucine. Thus radioactively labelled leucine was incorporated into the apolipoprotein B. The liquid medium was decanted and the apolipoprotein B was isolated by means of a double immunoprecipitation, i.e. first an apolipoprotein B-specific antibody (antibody1) was added to the liquid medium and subsequently a second antibody (antibody2) was added which binds specifically to the apoB-antibody1-complex. The thus formed apoB-antibody1-antibody2 complex precipitated and was isolated by centrifuge. Quantification of the amount of apolipoprotein B synthesized during the night resulted from measuring the radioactivity of the isolated complex. […] For each experiment the inhibition of apolipoprotein-B formation was expressed as [formula]
# When more experiments were carried out for the same concentration, the median value of the inhibition calculated for these experiments was calculated. […]
compound,measurement,value
"CCC(C)n1ncn(-c2ccc(N3CCN(c4ccc(OC[C@H]5CO[C@](CSc6nncn6C)(c6ccc(Cl)cc6)O5)cc4)CC3)cc2)c1=O (relative stereo) [Compound 40, cis-4-[4-[4-[4-[[2-(4-chlorophenyl)-2-[[(4-methyl-4H-1,2,4-triazol-3-yl)thio]methyl]-1,3-dioxolan-4-yl]methoxy]phenyl]-1-piperazinyl]phenyl]-2,4-dihydro-2-(1-methyl-propyl)-3H-1,2,4-triazol-3-one]",IC50,23 nM
